For one compound, mortality results are on record in patent publication US9089133B2, “Insecticide for agricultural or horticultural use and method of use thereof” (MITSUI CHEMICALS, INC., priority 2003, dated 2015).

Assay [1] deals with Common Cutworm (Spodoptera litura). The assay is described as follows: Insecticidal test for common cutworm (cabbage leaf dip). The format is in vivo. To be noted: foliar, 72 h, cabbage leaf immersed 30 seconds, 2nd-instar larvae, 25° C., three days after. On the procedure:
Insecticidal Test for Common Cutworm (Spodoptera litura)
A cabbage leaf piece was immersed in a solution prepared by diluting a test compound to a predetermined concentration for 30 seconds, and then dried in air. Then, the cabbage leaf piece was placed in a polyethylene cup of 7 cm-size in which 2nd-instar larvae of common cutworm were placed. The cup was allowed to stand in a thermostatic chamber at 25° C. Three days after, the numbers of living and dead larvae were counted. The test was carried out in two replications each containing five larvae.

Assay [2] deals with Diamondback Moth (Plutella xylostella). The assay is described as follows: Insecticidal test for diamondback moth (cabbage leaf dip). The format is in vivo. To be noted: foliar, 72 h, cabbage leaf immersed 30 seconds, 2nd-instar larvae, 25° C., three days after. The protocol:
Insecticidal Test for Diamondback Moth (Plutella xylostella)
A cabbage leaf pieces was immersed in a solution prepared by diluting a test compound to a predetermined concentration for 30 seconds, and then dried in air. Then, the leaf piece was placed in a polyethylene cup of 7 cm-size in which 2nd-instar larvae of […] were placed. The cup was allowed to stand in a thermostatic chamber at 25° C. Three days after, the numbers of living and dead larvae were counted. The test was carried out in two replications each containing five larvae.

By mortality is commonly meant the share of the test organisms that died. Higher therefore signals a strong lethal effect. For `O=C(Nc1cccc(C(=O)Nc2ccc(C(F)(F)F)cc2C(F)(F)F)c1)OCC(F)(F)C(F)(F)F` [Compound No. 250, N-(2,4-bistrifluoromethylphenyl) 3-[(2,2,3,3,3-pentafluoro-n-propyloxy)carbonylamino]benzamide], the mortality at 1000 ppm in assay [1] and in assay [2] was at least 70% throughout.
